Key:
[1] = system: human colon carcinoma (HT29) cells; assay: FACS analysis of apoptosis, HT29 cells; format: cell-based
[2] = system: L428 Hodgkins lymphoma cells; assay: FACS analysis of apoptosis and cell cycle, L428 cells; format: cell-based, human; conditions: 48 hours
[3] = system: p53 null lung carcinoma (H1299) cells; assay: FACS analysis of apoptosis and cell cycle, H1299 cells; format: cell-based, human
Excerpt: FIG. 8 illustrates a representative FACS (fluorescence activated cell sorting) profile obtained from the experiment indicated; horizontal axis denote DNA content of the cells and the vertical axis the numbers of cells that have a particular DNA content. Apoptotic cells have a subnormal DNA content and are represented as a peak to the extreme left of the profile (sub-G1); viable cells are represented in G1 and G2/M peaks which correspond to these phases of the cell cycle. Where percentages are provided, these indicate cells in sub-G1, G1 or G2/M phases, as indicated, as a percent of the total cell population. In all cases, the existence of apoptotic cells was confirmed by additional means such as microscopic examination.
Bar charts show quantitative data obtained from representative FACS analyses for the experiments indicated. In all cases, numbers of cells that are apoptotic (sub-G1), as a percentage of the total cell population, are depicted by diagonal-hatched bars; numbers of cells that are viable and in G1 (G1/S) phase of the cell cycle, as a percentage of the total cell population, are depicted by stippled bars; viable cells in G2/M phase of the cell cycle are depicted by horizontal-hatched bars.
The experiments described in the examples were performed using methods well-known to those skilled in the art and documented in standard text books in the field (e.g. Chapters 4 and 5, Methods in Cell Biology Vol 46 editors L. M. Schwartz and B. A. Osborne, Academic Press Ltd, London 1995 provides inter alia details on detection of apoptosis and cell division cycle arrest by FACS).

[4] = system: control B lymphoid (Daudi) cell line; assay: FACS analysis of control B lymphoid cells; format: cell-based; conditions: for apoptotic (sub-G1) cells: 48 hours, untreated basal apoptosis approximately 50%; for effect on control B cells: rimcazole 0.1 mM, 0.01 mM, 0.001 mM (FIG. 11c), haloperidol not shown
Saos-2::p53^teti cells = assay: FACS analysis of osteosarcoma cells with tetracycline-inducible p53; format: cell-based, human
[5] = system: MDA MB 468 human breast carcinoma xenografts; assay: Human breast carcinoma xenograft growth in athymic mice; format: in vivo; conditions: 10 mg/kg/day intraperitoneal, day 45; all or selected tumours
[6] = mouse, in vivo
Protocol: All drugs were dissolved in sterile water for injection and frozen as ˜2 ml aliquots, except haloperidol which was stored as a powder at RT and made up fresh each day in 45% cyclodextrin. The mice were housed in filter boxes in Maximiser laminar flow cabinets and fed sterilized food and water. All procedures were carried out in class 1 laminar flow hoods using sterile equipment and reagents. The mice were dosed daily by an intraperitoneal route (combined therapies dosed simultaneously) and body weights and tumour measurements recorded at frequent intervals.

[7] = system: 293 cells (transformed kidney epithelial cells); assay: FACS (propidium iodide) analysis of apoptosis, 293 cells; format: cell-based, human; parameters: cell population induced to apoptose: dose or concentration left out as unconfirmed
MDA MB 468 cells = assay: FACS analysis of hormone insensitive breast cancer cells; format: cell-based, human
MCF7 cells = assay: FACS analysis of hormone responsive breast carcinoma cells; format: cell-based, human; conditions: rimcazole 0.001 mM, 48 hours
MCF 7::p53^val135 cells = assay: Phase micrographs of MCF 7 cells with temperature sensitive p53; format: cell-based, human
wild-type Saos-2 cells = assay: Wild-type Saos-2 cells lacking p53; format: cell-based, human; conditions: low dose rimcazole combined with doxycycline
MDA MB 231 cells = assay: FACS analysis of hormone unresponsive breast carcinoma cells; format: cell-based, human; conditions: rimcazole 0.001 mM, 48 hours

COc1ccc2c(c1OC)C(=O)O[C@@H]2[C@H]1c2c(cc3c(c2OC)OCO3)CCN1C (relative stereo) [noscapine, (S-(R*,S*))-6,7-Dimethoxy-3-(5,6,7,8-tetrahydro-4-methoxy-6-methyl-1,3-dioxolo(4,5-g)isoquinolin-5-yl)-1(3H)-Isobenzofuranone]
apoptosis, % of cell population ([1]; 10^−4M on its own): 67%
apoptosis ([1]; 10^−4M with TNF added): additional increase
apoptosis induction ([2]; 10^−4M): majority of the cell population
apoptosis induction ([2]; 10^−5M): substantial amount of apoptosis
mitotic arrest (G2/M cells) ([2]; 10^−5M): increase in percentage of G2/M cells
apoptotic cells, % of total cell population ([3]; 10^−4M combined with TNF 5 ng/ml): 74%
apoptotic cells ([3]; 10^−4M, 48 hours, alone): 39%
apoptotic (sub-G1) cells [4]: approximately 50%

C[C@H]1c2cccc(O)c2C(=O)C2=C(O)[C@]3(O)C(=O)C(C(N)=O)=C(O)[C@@H](N(C)C)[C@@H]3[C@@H](O)[C@@H]21 [doxycycline]
cells undergoing apoptosis, % of total population (Saos-2::p53^teti cells; low dose doxycycline alone): 4%

O=C(CCCN1CCC(O)(c2ccc(Cl)cc2)CC1)c1ccc(F)cc1 [haloperidol, 4(4-(4-chlorophenyl)-4-hydroxy-1-piperidinyl)-1-(4-fluorophenyl)-1-Butanone]
tumour growth inhibition (tumour weights at excision) [5]: growth inhibition
ill effects / toxicity in mice [6]: transient sleepiness
apoptotic cells ([7]; haloperidol 10^−5 M combined with transfected RelA(p65)): 47%
apoptotic cells ([7]; haloperidol 10^−5 M on its own): 2-3%
sub-G1 apoptotic cells, % of total cell population ([7]; haloperidol without IκB (FIG. 9c)): 58%
sub-G1 apoptotic cells, % of total cell population ([7]; non-degradable mutant IκB plasmid transfected prior to haloperidol): 5%
apoptosis ([3]; haloperidol 10^−5M alone): 4%
apoptosis ([3]; haloperidol 10^−5M combined with TNF): 59%
effect on control B cells [4]: unaffected

Oc1ccc2c3c1O[C@H]1c4[nH]c5ccccc5c4C[C@@]4(O)[C@@H](C2)N(CC2CC2)CC[C@]314 [naltrindole]
apoptosis induction ([2]; 10^−4M): majority of the cell population
apoptosis induction ([2]; 10^−5M): substantial amount of apoptosis
mitotic arrest (G2/M cells) ([2]; 10^−5M): increase in percentage of G2/M cells
induction of death [7]: fails to induce death
induction of sub-G1 (apoptotic) cells [7]: marked induction
G2/M cell cycle arrest [3]: appearance of a G2/M peak
induction of apoptosis [3]: marked induction of apoptosis
apoptotic (sub-G1) cells [4]: approximately 50%

C[C@@H]1CN(CCCn2c3ccccc3c3ccccc32)C[C@H](C)N1 [rimcazole, cis-9-[3-(3,5-Dimethyl-1-piperazinyl)propyl]-9H-carbazole]
apoptotic cells (MDA MB 468 cells; 0.001 mM, approximately 48 hours): 16%
apoptosis, % of cell population (MDA MB 468 cells; 0.01 millimoles per liter, approximately 48 hours): 79%
cells induced to apoptose (MDA MB 468 cells; rimcazole 0.001 mM combined with cis-U50488 0.1 mM): 83%
apoptosis (MCF7 cells): 6%
proportion of G2/M cells (MCF7 cells): 32%
apoptosis (phase micrographs) (MCF 7::p53^val135 cells; 32 degC (p53 wild-type conformation), e.g. 0.001 mM): marked induction of apoptosis
apoptosis (phase micrographs) (MCF 7::p53^val135 cells; 37 degC): largely unaffected
apoptosis (phase micrographs) (MCF 7::p53^val135 cells; 37 degC (p53 largely inactive), 0.1 mM): Apoptosis is induced
effect of combination on apoptosis (wild-type Saos-2 cells): no effect
tumour growth inhibition (tumour weights at excision) [5]: significant tumour growth inhibition
apoptotic cells, % of total cell population (MDA MB 231 cells): 25%
proportion of G2/M cells (MDA MB 231 cells): 62%
cell population induced to apoptose (Saos-2::p53^teti cells; rimcazole 100 nM alone): approximately 5%
apoptotic cells (Saos-2::p53^teti cells; rimcazole 100 nM combined with doxycycline 0.02 μg/ml): 85%
cell population induced to apoptose ([7]; rimcazole alone): 1%
cell population induced to apoptose ([7]; rimcazole in combination with transiently overexpressed p53): 75%
apoptosis ([3]; rimcazole 0.01 mM in combination with trans-U50488 0.1 mM): 67%
apoptosis, % of cells ([3]; sublethal dose alone): 4%
apoptosis, % of cells ([3]; sublethal dose of rimcazole with sublethal dose of TNF): 61%
effect on control B cells [4]: unaffected

B1: proenkephalin: proenkephalin destined for the secretory pathway, overexpressed from transiently transfected plasmid DNA (protein, UniProt P01210 1-267, looked up)
chain: MARFLTLCTWLLLLGPGLLATVRAECSQDCATCSYRLVRPADINFLACVMECEGKLPSLKIWETCKELLQLSKPELPQDGTSTLRENSKPEESHLLAKRYGGFMKRYGGFMKKMDELYPMEPEEEANGSEILAKRYGGFMKKDAEEDDSLANSSDLLKELLETGDNRERSHHQDGSDNEEEVSKRYGGFMRGLKRSPQLEDEAKELQKRYGGFMRRVGRPEWWMDYQKRYGGFLKRFAEALPSDEEGESYSKEVPEMEKRYGGFMRF
modifications: full-length
notes: proenkephalin destined for the secretory pathway, overexpressed from transiently transfected plasmid DNA
induction of apoptosis ([7]; alone, 48 hours, TNF 5 ng/ml, proenkephalin 5 μg plasmid DNA (secretory) transfected): no induction of apoptosis
reduction in percentage of sub-G1 (apoptotic) cells ([7]; proenkephalin + TNF, co-transfection of 5 μg IκB plasmid): greater than 50%
percentage of apoptotic (sub-G1) cells ([7]; proenkephalin overexpressed in combination with TNF 5 ng/ml): marked increase

From patent publication US7572762B1, “Materials and methods relating to the induction of apoptosis in target cells” (University of Dundee, priority 1998, dated 2009)
